Reference: patent US20130096156A1 (priority 2010, published 2013)
Where two headings read alike, the source gives them in different places.

Legend:
Phytophthora infestans = assay: whole plant or invertebrate; assay type: in vivo; details: in Solanum lycopersicum, foliar, read-out: inhibit fungal infestation (percent disease control compared to untreated)
Plasmopara viticola = Plasmopara viticola / grape / leaf disc preventative; assay type: in vivo; details: foliar, grape vine leaf disks, inoculated 1 day after application, assessed 6-8 days after application, read-out: inhibit fungal infestation (percent disease control compared to untreated)
Protocol: (§1) Leaf disks of various plant species (diameter 14 mm) are cut from plants grown in the greenhouse. The cut leaf disks are placed in multiwell plates (24-well format) onto water agar. Immediately after cutting the leaf disks are sprayed with a test solution.
(§2) Compounds to be tested are prepared as DMSO solutions (max. 10 mg/ml). Just before spraying the solutions are diluted to the appropriate concentrations with 0.025% Tween20. After drying, the leaf disks are inoculated with a spore suspension of the appropriate pathogenic fungus.
(§3) After an incubation time of 3-7 days after inoculation at defined conditions (temp, rH, light, etc.) according to the respective test system, the activity of the test compound is assessed as antifungal activity.
Grape vine leaf disks are placed on water agar in multiwell plates (24-well format) and sprayed with the formulated test compound diluted in water. The leaf disks are inoculated with a spore suspension of the fungus 1 day after application. The inoculated leaf disks are incubated at 19° C. and 80% rh under a light regime of 12 h light/12 h darkness in a climate cabinet and the activity of a compound is assessed as percent disease control compared to untreated when an appropriate level of disease damage appears in untreated check leaf disks (6-8 days after application).

[1] = tested on: Blumeria graminis f. sp. tritici (Erysiphe graminis f. sp. tritici); assay: Blumeria graminis f. sp. tritici / wheat / leaf disc preventative (powdery mildew on wheat); assay type: in vivo; details: foliar, wheat leaf segments cv. Kanzler, inoculated 1 day after application, assessed 6-8 days after application, read-out: inhibit fungal infestation (percent disease control compared to untreated)
Protocol: as §1, §2, §3
Wheat leaf segments cv. Kanzler are placed on agar in a multiwell plate (24-well format) and sprayed with the formulated test compound diluted in water. The leaf disks are inoculated by shaking powdery mildew infected plants above the test plates 1 day after application. The inoculated leaf disks are incubated at 20° C. and 60% rh under a light regime of 24 h darkness followed by 12 h light/12 h darkness in a climate chamber and the activity of a compound is assessed as percent disease control compared to untreated when an appropriate level of disease damage appears on untreated check leaf segments (6-8 days after application).

[2] = tested on: Phaeosphaeria nodorum (Septoria nodorum); assay: Phaeosphaeria nodorum (Septoria nodorum) / wheat / leaf disc preventative (glume blotch); assay type: in vivo; details: Parastagonospora nodorum, foliar, wheat leaf segments cv. Kanzler, inoculated 2 days after application, assessed 5-7 days after application, read-out: inhibit fungal infestation (percent disease control compared to untreated)
Protocol: as §1, §2, §3
Wheat leaf segments cv. Kanzler are placed on agar in a multiwell plate (24-well format) and sprayed with the formulated test compound diluted in water. The leaf disks are inoculated with a spore suspension of the fungus 2 days after application. The inoculated test leaf disks are incubated at 20° C. and 75% rh under a light regime of 12 h light/12 h darkness in a climate cabinet and the activity of a compound is assessed as percent disease control compared to untreated when an appropriate level of disease damage appears in untreated check leaf disks (5-7 days after application).

Pythium ultimum = Pythium ultimum / liquid culture (seedling damping off); assay type: cell-based; details: Globisporangium ultimum, liquid culture in PDB, 24° C., 2-3 days after application, read-out: inhibit fungal infestation (inhibition of growth determined photometrically)
Protocol: Mycelia fragments or conidia suspensions of a fungus, prepared either freshly from liquid cultures of the fungus or from cryogenic storage, are directly mixed into nutrient broth. DMSO solutions of the test compound (max. 10 mg/ml) is diluted with 0.025% Tween20 by factor 50 and 10 μl of this solution is pipetted into a microtiter plate (96-well format) and the nutrient broth containing the fungal spores/mycelia fragments is then added to give an end concentration of the tested compound. The test plates are incubated at 24° C. and 96% rH in the dark. The inhibition of fungal growth is determined photometrically after 2-6 days and antifungal activity is calculated.
Mycelia fragments and oospores of a newly grown liquid culture of the fungus are directly mixed into nutrient broth (PDB potato dextrose broth). After placing a (DMSO) solution of test compound into a microtiter plate (96-well format), the nutrient broth containing the fungal mycelia/spore mixture is added. The test plates are incubated at 24° C. and the inhibition of growth is determined photometrically 2-3 days after application.

Compound | inhibition at 200 ppm (Phytophthora infestans) [%] | inhibition at 200 ppm (Plasmopara viticola) [%] | inhibition at 200 ppm [1] [%] | inhibition at 200 ppm [2] [%] | inhibition at 200 ppm (Pythium ultimum) [%] | melting point [°C] | inhibition at 200 ppm ([1]; in Triticum aestivum) [%] | inhibition at 200 ppm ([2]; in Triticum aestivum) [%]
C#CC(C)(C)NC(=O)C(Oc1cc(C)c2ncc(C=C)cc2c1)SC (stereo not shown) [Compound 36, N-(1,1-Dimethyl-prop-2-ynyl)-2-methylsulfanyl-2-(8-methyl-3-vinyl-quinolin-6-yloxy)-acetamide] | ≥ 80 | ≥ 80 | ≥ 80 | ≥ 80 | ≥ 80 | 115 to 117 |  | 
CCc1cnc2c(F)cc(OC(SC)C(=O)NC(C)(C)/C=N/OC)cc2c1 (stereo not shown) [Compound 14, 2-(3-Ethyl-8-fluoro-quinolin-6-yloxy)-N-(2-methoxyimino-1,1-dimethyl-ethyl)-2-methylsulfanyl-acetamide] | ≥ 80 | ≥ 80 | ≥ 80 | ≥ 80 | ≥ 80 | 101 to 103 |  | 
C=Cc1cnc2ccc(OC(SC)C(=O)NC(C)(C)/C=N/OC)cc2c1 (stereo not shown) [Compound 34, N-(2-Methoxyimino-1,1-dimethyl-ethyl)-2-methylsulfanyl-2-(3-vinyl-quinolin-6-yloxy)-acetamide] | ≥ 80 | ≥ 80 | ≥ 80 | ≥ 80 | ≥ 80 | 114 to 116 |  | 
C=Cc1cnc2c(F)cc(OC(SC)C(=O)NC(C)(C)/C=N/OC)cc2c1 (stereo not shown) [Compound 37] | ≥ 80 | ≥ 80 |  |  | ≥ 80 | 105 to 107 | ≥ 80 | ≥ 80
CC#CC(C)(C)NC(=O)C(Oc1ccc2ncc(C)cc2c1)SC (stereo not shown) [Compound 3, N-(1,1-Dimethyl-but-2-ynyl)-2-(3-methyl-quinolin-6-yloxy)-2-methylsulfanyl-acetamide] | ≥ 80 | ≥ 80 | ≥ 80 |  | ≥ 80 | 128 to 129 |  | 
CCc1cnc2c(Cl)cc(OC(SC)C(=O)NC(C)(C)/C=N/OC)cc2c1 (stereo not shown) [Compound 24, 2-(8-Chloro-3-ethyl-quinolin-6-yloxy)-N-(2-methoxyimino-1,1-dimethyl-ethyl)-2-methylsulfanyl-acetamide] | ≥ 80 | ≥ 80 | ≥ 80 |  | ≥ 80 | 142 to 144 |  | 
CO/N=C/C(C)(C)NC(=O)C(Oc1cc(C)c2ncc(C)cc2c1)SC (stereo not shown) [Compound 8, 2-(3,8-Dimethyl-quinolin-6-yloxy)-N-(2-methoxyimino-1,1-dimethyl-ethyl)-2-methylsulfanyl-acetamide] | ≥ 80 | ≥ 80 | ≥ 80 | ≥ 80 | ≥ 80 | 109 to 111 |  | 
CCc1cnc2c(C)cc(OC(SC)C(=O)NC(C)(C)/C=N/OC)cc2c1 (stereo not shown) [Compound 16, 2-(3-Ethyl-8-methyl-quinolin-6-yloxy)-N-(2-methoxyimino-1,1-dimethyl-ethyl)-2-methylsulfanyl-acetamide] | ≥ 80 | ≥ 80 | ≥ 80 | ≥ 80 | ≥ 80 | 105 to 106 |  | 
C#CC(C)(C)NC(=O)C(Oc1ccc2ncc(C=C)cc2c1)SC (stereo not shown) [Compound 33, N-(1,1-Dimethyl-prop-2-ynyl)-2-methylsulfanyl-2-(3-vinyl-quinolin-6-yloxy)-acetamide] | ≥ 80 | ≥ 80 | ≥ 80 | ≥ 80 | ≥ 80 | 142 to 144 |  | 
C=Cc1cnc2c(C)cc(OC(SC)C(=O)NC(C)(C)/C=N/OC)cc2c1 (stereo not shown) [Compound 35, N-(2-Methoxyimino-1,1-dimethyl-ethyl)-2-methylsulfanyl-2-(8-methyl-3-vinyl-quinolin-6-yloxy)-acetamide] | ≥ 80 | ≥ 80 | ≥ 80 | ≥ 80 | ≥ 80 | 87 to 89 |  | 
C#CC(C)(C)NC(=O)C(Oc1cc(Cl)c2ncc(CC)cc2c1)SC (stereo not shown) [Compound 25, 2-(8-Chloro-3-ethyl-quinolin-6-yloxy)-N-(1,1-dimethyl-prop-2-ynyl)-2-methylsulfanyl-acetamide] | ≥ 80 | ≥ 80 |  | ≥ 80 |  | 149 to 151 |  | 
CSC(Oc1cc(C)c2ncc(C)cc2c1)C(=O)NC(C)(C)C (stereo not shown) [Compound 6, N-tert-Butyl-2-(3,8-dimethyl-quinolin-6-yloxy)-2-methylsulfanyl-acetamide] | ≥ 80 | ≥ 80 | ≥ 80 |  | ≥ 80 | 126 to 127 |  | 
C#CC(C)(C)NC(=O)C(Oc1ccc2ncc(C)cc2c1)SC (stereo not shown) [Compound 2, N-(1,1-Dimethyl-prop-2-ynyl)-2-(3-methyl-quinolin-6-yloxy)-2-methylsulfanyl-acetamide] | ≥ 80 | ≥ 80 | ≥ 80 |  | ≥ 80 | 132 to 134 |  | 
C#CC(C)(C)NC(=O)C(Oc1cc(C)c2ncc(CC)cc2c1)SC (stereo not shown) [Compound 18, N-(1,1-Dimethyl-prop-2-ynyl)-2-(3-ethyl-8-methyl-quinolin-6-yloxy)-2-methylsulfanyl-acetamide] | ≥ 80 | ≥ 80 | ≥ 80 | ≥ 80 | ≥ 80 | 92 to 93 |  | 
CC#CC(C)(C)NC(=O)C(Oc1cc(F)c2ncc(CC)cc2c1)SC (stereo not shown) [Compound 15, N-(1,1-Dimethyl-but-2-ynyl)-2-(3-ethyl-8-fluoro-quinolin-6-yloxy)-2-methylsulfanyl-acetamide] | ≥ 80 | ≥ 80 | ≥ 80 |  | ≥ 80 | 151 to 153 |  | 
C#CC(C)(COC)NC(=O)C(Oc1cc(C)c2ncc(C)cc2c1)SC (stereo not shown) [Compound 10, 2-(3,8-Dimethyl-quinolin-6-yloxy)-N-(1-methoxymethyl-1-methyl-prop-2-ynyl)-2-methylsulfanyl-acetamide] | ≥ 80 |  | ≥ 80 | ≥ 80 | ≥ 80 | 119 to 120 |  | 
